Patent publication US6849716B1, “Methods for designing inhibitors of serine/threonine kinases and tyrosine kinases” (Vertex Pharmaceuticals Incorporated, priority 1998, dated 2005)

Columns and labels:
ERK2 (wild-type) = ERK2 (wild-type) (Homo sapiens, UniProt P28482); assay: Coupled spectrophotometric kinase assay, ERK2 (wild-type); assay type: biochemical
ERK2 (Q105A) = ERK2 (Q105A) (Homo sapiens, UniProt P28482, Q105A); assay: Coupled spectrophotometric kinase assay, ERK2 (Q105A); assay type: biochemical
ERK2 (Q105T) = ERK2 (Q105T) (Homo sapiens, UniProt P28482, Q105T); assay: Coupled spectrophotometric kinase assay, ERK2 (Q105T); assay type: biochemical
p38 = p38 (Homo sapiens, UniProt Q16539); assay: Coupled spectrophotometric kinase assay, p38; assay type: biochemical; details: read-out: KM for ATP
Chain of p38 (Q16539 whole entry): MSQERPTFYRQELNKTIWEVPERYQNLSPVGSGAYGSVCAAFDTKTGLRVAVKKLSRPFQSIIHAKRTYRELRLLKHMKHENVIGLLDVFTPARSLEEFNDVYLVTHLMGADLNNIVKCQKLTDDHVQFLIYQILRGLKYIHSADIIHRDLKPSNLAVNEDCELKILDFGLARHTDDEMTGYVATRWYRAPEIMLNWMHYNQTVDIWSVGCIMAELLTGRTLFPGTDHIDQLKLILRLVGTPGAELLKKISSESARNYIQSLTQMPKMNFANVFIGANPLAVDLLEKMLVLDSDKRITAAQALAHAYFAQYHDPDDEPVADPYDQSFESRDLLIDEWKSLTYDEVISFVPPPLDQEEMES

JNK3 (M146A) = JNK3 (M146A) (Homo sapiens, UniProt P53779, M146A); assay: Coupled spectrophotometric kinase assay, JNK3 (M146A)
Chain of JNK3 (M146A) (P53779 40-402 M146A): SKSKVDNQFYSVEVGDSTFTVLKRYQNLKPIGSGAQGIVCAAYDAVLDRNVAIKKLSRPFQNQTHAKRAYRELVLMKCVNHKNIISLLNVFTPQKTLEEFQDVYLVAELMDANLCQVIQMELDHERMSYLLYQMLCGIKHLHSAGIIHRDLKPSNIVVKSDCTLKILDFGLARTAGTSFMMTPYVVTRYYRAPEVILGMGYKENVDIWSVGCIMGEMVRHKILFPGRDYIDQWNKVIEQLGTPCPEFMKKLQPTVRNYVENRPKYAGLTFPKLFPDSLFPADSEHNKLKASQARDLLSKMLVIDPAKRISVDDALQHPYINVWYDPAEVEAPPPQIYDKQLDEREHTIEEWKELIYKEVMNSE
Method: (§1) Due to the different Km values for the wild-type and mutant JNK3 enzymes we assayed each one with different ATP concentrations:
(§2) Enzyme concentrations in the assay were 5-10 nM. As for ERK2, the kinase phosphate acceptor substrate was the EGF receptor peptide (SEQ ID NO:23) used at 200 μM. Data analysis to determine Ki values was also as described for ERK2.

JNK3 (wild-type) = JNK3 (wild-type) (Homo sapiens, UniProt P53779); assay: Coupled spectrophotometric kinase assay, JNK3 (wild-type)
Chain of JNK3 (wild-type) (P53779 40-402): as the sequence (P53779 40-402 M146A) above, with A107M counted along it
Method: as §1, §2

JNK3 (M146A/D150G) = JNK3 (M146A/D150G) (Homo sapiens, UniProt P53779, D150G/M146A); assay: Coupled spectrophotometric kinase assay, JNK3 (M146A/D150G)
Chain of JNK3 (M146A/D150G) (P53779 40-402 M146A/D150G): as the sequence (P53779 40-402 M146A) above, with D111G counted along it
Method: as §1, §2

[1] = 100 μM ATP, 200 μM EGF receptor peptide, read-out: Inhibition constants, Ki

| SMILES | Km (ERK2 (wild-type); read-out: KM for ATP) | Km (ERK2 (Q105A); read-out: KM for ATP) | Km (ERK2 (Q105T); read-out: KM for ATP) | Km (p38) | Km (JNK3 (M146A); read-out: KM for ATP, JNK3 (M146A)) | Km (JNK3 (wild-type); read-out: KM for ATP, JNK3 (wild-type)) | Km (JNK3 (M146A/D150G); read-out: KM for ATP, JNK3 (M146A/D150G)) | Ki (ERK2 (wild-type); [1]) | Ki (ERK2 (Q105A); [1]) | Ki (ERK2 (Q105T); [1]) | increase in sensitivity versus wild-type JNK3 (JNK3 (M146A); JNK3 M146A mutant) | sensitivity of wild-type JNK3 (in words) (JNK3 (wild-type); wild-type JNK3) | sensitivity of the JNK3 double mutant (in words) (JNK3 (M146A/D150G); JNK3 (M146A/D150G) compared with wild-type and single mutant) |
| --- | --- | --- | --- | --- | --- | --- | --- | --- | --- | --- | --- | --- | --- |
| Nc1ncnc2c1ncn2[C@@H]1O[C@H](COP(=O)(O)OP(=O)(O)OP(=O)(O)O)[C@@H](O)[C@H]1O [ATP] | 76 ± 14 µM | 51 ± 6 µM | 33 ± 4 µM | 260 ± 30 µM | 75 µM | 15 µM | 311 µM | – | – | – | – | – | – |
| Oc1ccc(-c2nc(-c3ccc(F)cc3)c(-c3ccncc3)[nH]2)cc1 [SB202190, reference compound] | – | – | – | – | – | – | – | > 20000 nM | 0.81 ± 0.19 nM | 6.8 ± 0.6 nM | ~4,000 fold | moderately sensitive | considerably more sensitive than wild-type, but significantly less than observed for the single mutant |
